Assay results published in publication PMC2989642 (The European journal of neuroscience, 2010).
Several values for one entry are separate records, joined by “and”; a condition that tells them apart may be missing. Equal values may be shown once. Read-outs that look alike come from different tables or passages of the source.

Key:
[1] = molecular target: hetero-oligomeric nAChR binding sites in SCG membranes (Mus musculus, UniProt Q8R493+Q8R4G9)
[2] = molecular target: nAChRs in adult (intact) mouse SCG; conditions: read-out: KD of [3H]-epibatidine binding, ref Del Signore et al., 2002; cited from earlier work
[3] = molecular target: α3β4 receptors (in the α5β2 KO) (Mus musculus, UniProt Q8R493+Q8R4G9); test: cell-based
Sequence of α3β4 receptors (in the α5β2 KO) (Q8R4G9 26-499): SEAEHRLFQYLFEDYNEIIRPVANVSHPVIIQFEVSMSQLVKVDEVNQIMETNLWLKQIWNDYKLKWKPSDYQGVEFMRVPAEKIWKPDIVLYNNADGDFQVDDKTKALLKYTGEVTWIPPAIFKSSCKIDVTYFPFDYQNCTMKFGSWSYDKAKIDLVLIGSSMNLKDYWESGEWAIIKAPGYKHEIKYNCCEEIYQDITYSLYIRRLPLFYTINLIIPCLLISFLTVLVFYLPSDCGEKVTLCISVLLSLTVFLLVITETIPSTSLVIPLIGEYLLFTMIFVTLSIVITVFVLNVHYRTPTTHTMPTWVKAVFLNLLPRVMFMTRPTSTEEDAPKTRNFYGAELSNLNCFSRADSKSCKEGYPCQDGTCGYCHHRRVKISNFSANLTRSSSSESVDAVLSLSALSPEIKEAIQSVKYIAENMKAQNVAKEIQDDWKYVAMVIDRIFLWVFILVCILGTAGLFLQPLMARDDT
Sequence of α3β4 receptors (in the α5β2 KO) (Q8R493 21-495): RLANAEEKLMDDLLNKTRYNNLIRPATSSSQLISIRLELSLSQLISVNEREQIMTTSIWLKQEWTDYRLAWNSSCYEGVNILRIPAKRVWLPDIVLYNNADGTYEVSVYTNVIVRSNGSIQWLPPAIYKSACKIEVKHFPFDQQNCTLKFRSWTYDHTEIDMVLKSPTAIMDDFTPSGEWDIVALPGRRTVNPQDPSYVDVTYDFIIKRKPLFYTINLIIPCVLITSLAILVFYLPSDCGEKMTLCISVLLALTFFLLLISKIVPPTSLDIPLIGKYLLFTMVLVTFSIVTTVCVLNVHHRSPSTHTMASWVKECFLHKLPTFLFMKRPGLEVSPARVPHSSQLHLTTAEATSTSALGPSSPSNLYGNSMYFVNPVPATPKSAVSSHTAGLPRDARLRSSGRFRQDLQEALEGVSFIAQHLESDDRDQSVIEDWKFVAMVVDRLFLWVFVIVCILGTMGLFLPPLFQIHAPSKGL

[4] = molecular target: α3β4α5 receptors (in the β2 KO) (Mus musculus, UniProt Q8R493+Q8R4G9); assay type: cell-based
Sequence of α3β4α5 receptors (in the β2 KO) (Q8R4G9 26-499): as the sequence (Q8R4G9 26-499) above
Sequence of α3β4α5 receptors (in the β2 KO) (Q8R493 21-495): as the sequence (Q8R493 21-495) above
Sequence of α3β4α5 receptors (in the β2 KO) (Q2MKA5 30-467 partner): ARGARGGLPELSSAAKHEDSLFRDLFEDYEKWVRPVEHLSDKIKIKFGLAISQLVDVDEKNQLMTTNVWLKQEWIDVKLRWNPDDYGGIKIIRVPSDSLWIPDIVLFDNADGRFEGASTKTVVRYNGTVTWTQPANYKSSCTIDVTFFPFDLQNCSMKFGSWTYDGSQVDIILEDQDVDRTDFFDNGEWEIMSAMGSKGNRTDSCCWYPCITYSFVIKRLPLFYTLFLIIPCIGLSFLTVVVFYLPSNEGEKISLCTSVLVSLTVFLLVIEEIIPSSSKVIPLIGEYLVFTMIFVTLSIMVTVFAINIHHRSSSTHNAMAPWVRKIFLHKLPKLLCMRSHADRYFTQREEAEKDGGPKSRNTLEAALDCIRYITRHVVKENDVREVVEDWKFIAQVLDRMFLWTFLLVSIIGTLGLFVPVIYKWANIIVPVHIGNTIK

[5] = molecular target: α3β2 receptors (in the α5β4 KO) (Mus musculus, UniProt Q8R4G9+Q9ERK7); test: cell-based; assay type: cell-based
Sequence of α3β2 receptors (in the α5β4 KO) (Q8R4G9 26-499): as the sequence (Q8R4G9 26-499) above
Sequence of α3β2 receptors (in the α5β4 KO) (Q9ERK7 26-501): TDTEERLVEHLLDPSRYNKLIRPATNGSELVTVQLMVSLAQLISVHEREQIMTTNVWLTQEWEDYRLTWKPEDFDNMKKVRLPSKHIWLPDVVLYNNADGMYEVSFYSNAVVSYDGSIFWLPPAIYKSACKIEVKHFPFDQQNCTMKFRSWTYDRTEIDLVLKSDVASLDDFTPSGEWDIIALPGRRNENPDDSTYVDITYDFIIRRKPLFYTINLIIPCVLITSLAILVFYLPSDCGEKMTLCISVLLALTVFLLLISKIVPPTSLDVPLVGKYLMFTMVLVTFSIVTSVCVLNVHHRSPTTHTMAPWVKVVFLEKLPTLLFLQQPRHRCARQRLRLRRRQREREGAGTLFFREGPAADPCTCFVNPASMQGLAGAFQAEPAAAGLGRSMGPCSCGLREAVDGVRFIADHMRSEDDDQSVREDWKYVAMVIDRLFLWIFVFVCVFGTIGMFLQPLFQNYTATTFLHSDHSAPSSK

[6] = system: hα3β4; conditions: ref Nelson et al., 2001, cited from earlier work
[7] = system: hα3α5β4; conditions: probed with 300 μM ACh; ref Nelson et al., 2001; cited from earlier work
[8] = system: rα3β4 receptors; conditions: ref Wong et al., 1995; cited from earlier work
[9] = system: human α3β4 receptors; conditions: ref Chavez-Noriega et al., 1997; cited from earlier work
[10] = system: α7 nAChRs; assay type: cell-based, mouse
[11] = system: α7 nAChRs; assay type: cell-based, mouse; remark: listed apart in the source
[12] = molecular target: T1, α7 nAChRs (Mus musculus, UniProt P49582); assay type: cell-based
T1 sequence (P49582 23-502): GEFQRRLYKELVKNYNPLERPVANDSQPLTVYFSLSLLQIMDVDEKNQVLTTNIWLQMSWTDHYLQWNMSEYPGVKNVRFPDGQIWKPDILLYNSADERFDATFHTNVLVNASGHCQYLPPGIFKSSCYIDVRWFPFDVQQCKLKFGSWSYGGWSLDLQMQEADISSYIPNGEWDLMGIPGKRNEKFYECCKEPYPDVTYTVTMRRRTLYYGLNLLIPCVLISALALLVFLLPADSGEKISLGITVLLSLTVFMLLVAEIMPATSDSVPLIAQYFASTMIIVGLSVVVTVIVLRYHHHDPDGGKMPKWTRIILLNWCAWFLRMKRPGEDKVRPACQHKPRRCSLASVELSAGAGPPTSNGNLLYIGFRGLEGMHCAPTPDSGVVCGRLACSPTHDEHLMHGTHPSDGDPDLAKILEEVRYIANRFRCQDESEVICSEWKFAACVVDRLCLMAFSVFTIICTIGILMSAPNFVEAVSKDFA

[13] = molecular target: T1, α7 nAChRs; assay type: cell-based; remark: listed apart in the source
[14] = system: SCG neurons from α5α7β2 KO animals; assay type: cell-based, mouse
[15] = molecular target: α7 receptors (Gallus gallus, UniProt P22770); assay type: cell-based, chick
Sequence of α7 receptors (P22770 23-502 limits assumed): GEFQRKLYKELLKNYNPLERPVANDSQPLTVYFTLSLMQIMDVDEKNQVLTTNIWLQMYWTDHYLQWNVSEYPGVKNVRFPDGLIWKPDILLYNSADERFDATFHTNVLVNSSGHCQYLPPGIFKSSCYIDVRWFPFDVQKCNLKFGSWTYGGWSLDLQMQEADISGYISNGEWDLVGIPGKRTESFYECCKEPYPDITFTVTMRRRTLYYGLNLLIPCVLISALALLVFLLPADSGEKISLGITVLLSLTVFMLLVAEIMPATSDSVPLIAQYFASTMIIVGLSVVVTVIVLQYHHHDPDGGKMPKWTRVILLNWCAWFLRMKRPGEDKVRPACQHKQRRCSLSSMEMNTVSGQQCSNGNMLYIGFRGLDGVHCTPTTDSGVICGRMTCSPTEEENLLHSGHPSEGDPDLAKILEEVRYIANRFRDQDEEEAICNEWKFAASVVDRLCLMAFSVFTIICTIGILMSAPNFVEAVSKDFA

Sequence of hetero-oligomeric nAChR binding sites in SCG membranes (Q8R4G9 26-499): as the sequence (Q8R4G9 26-499) above
Sequence of hetero-oligomeric nAChR binding sites in SCG membranes (Q8R493 21-495): as the sequence (Q8R493 21-495) above
Sequence of hetero-oligomeric nAChR binding sites in SCG membranes (Q2MKA5 30-467 partner): as the sequence (Q2MKA5 30-467 partner) above
Sequence of hetero-oligomeric nAChR binding sites in SCG membranes (Q9ERK7 26-501 partner): as the sequence (Q9ERK7 26-501) above

**Q.** Which “Bmax of [3H]-epibatidine binding” value ([1]; averaged from 4 experiments, P18 WT SCG membranes) does the source give for Clc1ccc(C2CC3CCC2N3)cn1 (racemic) [[^3H]-epibatidine, [5,6.bicycloheptyl-^3H](+/−)epibatidine] here?
**A.** 345.8 ± 25.6 fmol/mg protein

**Q.** And the “Bmax of [3H]-epibatidine binding” value ([1]; single experiment shown in Fig. 1A)?
**A.** 371.2 ± 13.5 fmol/mg protein

**Q.** And the Kd [2]?
**A.** 0.000137 µM

**Q.** Which “Af (fast amplitude, share of current)” value [3] does the source give for CC(=O)OCC[N+](C)(C)C [ACh, acetylcholine] here?
**A.** 13.0 ± 0.7 % ^1

**Q.** And the “Af + As + C (total amplitude)” value [3]?
**A.** 3747 ± 215 pA ^6

**Q.** What about the “As (slow amplitude, share of current)” value [3] of the same molecule?
**A.** 56.3 ± 2.3 % ^3

**Q.** What about the “C (plateau, share of current)” value [3] of the same molecule?
**A.** 30.5 ± 2.8 % ^5

**Q.** And the Hill coefficient [3]?
**A.** 1.60 ± 0.05

**Q.** What about the “Tf (fast decay time constant)” value [3] of the same molecule?
**A.** 444 ± 22 (msec) ^2

**Q.** What about the “Ts (slow decay time constant)” value [3] of the same molecule?
**A.** 5495 ± 496 (msec) ^4

**Q.** What about the “Af (fast amplitude, share of current)” value [4] of the same molecule?
**A.** 16.8 ± 1.1 % ^1

**Q.** And the “Af + As + C (total amplitude)” value [4]?
**A.** 3907 ± 230 pA ^6

**Q.** What about the “Af, fast” value [4] of the same molecule?
**A.** −809 pA

**Q.** And the “As (slow amplitude, share of current)” value [4]?
**A.** 48.6 ± 2.6 % ^3

**Q.** And the “As, slow” value [4]?
**A.** −2899 pA

**Q.** What about the “C (plateau, share of current)” value [4] of the same molecule?
**A.** 34.5 ± 2.8 % ^5

**Q.** What about the “Tf (fast decay time constant)” value [4] of the same molecule?
**A.** 449 ± 30 (msec) ^2

**Q.** And the “Tf, fast” value [4]?
**A.** 0.47 s

**Q.** And the “Ts (slow decay time constant)” value [4]?
**A.** 5592 ± 509 (msec) ^4

**Q.** What about the “Ts, slow” value [4] of the same molecule?
**A.** 6.98 s

**Q.** What about the plateau [4] of the same molecule?
**A.** −943 pA

**Q.** What about the “Af (fast amplitude, share of current)” value [5] of the same molecule?
**A.** 50.5 ± 2.1%

**Q.** And the “Af + As + C (total amplitude)” value [5]?
**A.** 1166 ± 77 pA

**Q.** And the “Af, fast” value [5]?
**A.** −1171 pA

**Q.** What about the “As (slow amplitude, share of current)” value [5] of the same molecule?
**A.** 36.2 ± 1.7%

**Q.** And the “As, slow” value [5]?
**A.** −472 pA

**Q.** And the “C (plateau, share of current)” value [5]?
**A.** 13.2 ± 1.0%

**Q.** What about the EC50 [5] of the same molecule?
**A.** 169 ± 25.2 µM

**Q.** What about the Hill coefficient [5] of the same molecule?
**A.** 0.67 ± 0.04

**Q.** And the “Tf, fast” value [5]?
**A.** 115 ms

**Q.** And the “Ts, slow” value [5]?
**A.** 1477 ms

**Q.** What about the plateau [5] of the same molecule?
**A.** −140 pA

**Q.** And the decay time constant ([6]; probed with 300 μM ACh)?
**A.** 495 ms

**Q.** And the decay time constant [7]?
**A.** 563 ms

**Q.** Which Hill coefficient [3] does the source give for O=c1cccc2n1C[C@@H]1CNC[C@H]2C1 [Cytisine, cytisine] here?
**A.** 1.44 ± 0.06

**Q.** What about the “low-concentration potency ratio cytisine/DMPP” value [3] of the same molecule?
**A.** 1.23

**Q.** And the “potency ratio cytisine/DMPP (low concentration)” value [3]?
**A.** 1.34

**Q.** And the EC50 ([3]; EC50)?
**A.** 34.5 ± 2.26 µM

**Q.** What about the EC50 ([3]; fictitious EC50) of the same molecule?
**A.** 21.7 µM

**Q.** And the EC50 [4]?
**A.** 37.7 ± 2.43 µM

**Q.** And the Hill coefficient [4]?
**A.** 1.10 ± 0.02

**Q.** What about the “low-concentration potency ratio cytisine/DMPP” value [4] of the same molecule?
**A.** 0.76 ± 0.04 and 0.76

**Q.** And the “potency ratio cytisine/DMPP (low concentration)” value [4]?
**A.** 0.67

**Q.** What about the EC50 ([4]; read-out: fictitious EC50) of the same molecule?
**A.** 26.2 µM

**Q.** What about the “potency ratio cytisine/DMPP” value [6] of the same molecule?
**A.** 1.29

**Q.** And the “potency ratio cytisine/DMPP” value [8]?
**A.** 1.47

**Q.** And the “potency ratio cytisine/DMPP” value [9]?
**A.** 4

**Q.** Which results are given for C[N+]1(C)CCN(c2ccccc2)CC1.[I-] [DMPP, 1,1-dimethyl-4-phenylpiperazinium iodide]?
**A.** Hill coefficient [3]: 1.91 ± 0.06; EC50 ([3]; EC50): 19 ± 0.76 µM; EC50 ([3]; fictitious EC50): 16.1 µM; EC50 [4]: 23 ± 1.17 µM; Hill coefficient [4]: 1.79 ± 0.08; EC50 ([4]; read-out: fictitious EC50): 39.2 µM; EC50 [5]: 11 ± 1.79 µM; Hill coefficient [5]: 1.21 ± 0.12

**Q.** For CCN1C[C@]2(COC(=O)c3ccccc3N3C(=O)C[C@H](C)C3=O)CC[C@H](OC)[C@@]34[C@@H]5C[C@H]6[C@H](OC)[C@@H]5[C@](O)(C[C@@H]6OC)[C@@](O)([C@@H](OC)[C@H]23)[C@@H]14 [MLA, methyllycaconitine], which “effect of MLA on peak currents in response to 500 μM ACh” value [10] is on record?
**A.** unaffected

**Q.** What about the “effect of MLA on peak currents in response to 500 μM ACh” value [11] of the same molecule?
**A.** unaffected

**Q.** With COc1cc(OC)c(NC(=O)Nc2cc(C)on2)cc1Cl [PNU-120596] as the molecule, how does the “choline-induced currents with 10 μM PNU-120596 versus without” value [12] read?
**A.** significantly larger

**Q.** And the “peak currents in response to 300 μM ACh in the presence of 10 μM PNU-120596” value (“peak currents in response to 300 μM ACh” for short) ([10]; n = 13)?
**A.** somewhat reduced

**Q.** What about the “choline-induced currents with 10 μM PNU-120596 versus without” value [13] of the same molecule?
**A.** significantly larger

**Q.** And the “peak currents in response to 300 μM ACh” value ([11]; n = 14)?
**A.** somewhat enhanced

**Q.** And the “choline-induced currents with 10 μM PNU-120596 versus without” value [14]?
**A.** not significantly different

**Q.** And the “peak currents in response to 300 μM ACh” value ([14]; n = 26)?
**A.** somewhat enhanced

**Q.** What about the “Peak currents in response to 10 mM choline in the presence of PNU-120596” value [15] of the same molecule?
**A.** 1688 ± 204 pA/pF

**Q.** With C[N+](C)(C)CCO [choline] as the molecule, how does the “currents induced by choline” value [12] read?
**A.** negligible currents

**Q.** And the “currents induced by choline” value [11]?
**A.** slowly decaying currents of considerable amplitude

**Q.** And the “Peak currents in response to 10 mM choline” value [15]?
**A.** 40.4 ± 3.8 pA/pF
